# Assay results published in patent publication US9670227B2, “Thienopyrimidine derivatives, a process for their preparation and pharmaceutical compositions containing them” (LES LABORATOIRES SERVIER, priority 2013, dated 2017).
# Like-named read-outs stand apart in the source and are kept apart here.
# Tests used:
# [1] = target: Mcl-1 protein (UniProtKB primary accession number: Q07820) (Homo sapiens, UniProt Q07820); assay: Inhibition of Mcl-1 by fluorescence polarisation, Method 1; type: binding; settings: fluorescence polarisation test; Method 2 values are underlined in the patent (underlining not visible here); read-out: IC50 (M) Mcl-1 FP
# Summary of the method: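 Buffer of 10 mM HEPES pH 7.4 with 150 mM NaCl and 0.05% Tween 20 held 5 nM Mcl-1 and 1 nM fluorescein-tagged ligand (final). Compounds were tested as 11-point serial dilutions at 5% final DMSO, and binding was read by FP.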
# [2] = system: H929 multiple myeloma tumour line; assay: In vitro cytotoxicity, Microculture Tetrazolium Assay; type: cell-based; settings: H929 cells, 48 hours exposure, MTT, read-out: IC50 (μM) MTT H929
# Experimental: The cytotoxicity studies were carried out on the H929 multiple myeloma tumour line.
# The cells are distributed onto microplates and exposed to the test compounds for 48 hours.
# Mcl-1 protein, sequence (Q07820 whole entry): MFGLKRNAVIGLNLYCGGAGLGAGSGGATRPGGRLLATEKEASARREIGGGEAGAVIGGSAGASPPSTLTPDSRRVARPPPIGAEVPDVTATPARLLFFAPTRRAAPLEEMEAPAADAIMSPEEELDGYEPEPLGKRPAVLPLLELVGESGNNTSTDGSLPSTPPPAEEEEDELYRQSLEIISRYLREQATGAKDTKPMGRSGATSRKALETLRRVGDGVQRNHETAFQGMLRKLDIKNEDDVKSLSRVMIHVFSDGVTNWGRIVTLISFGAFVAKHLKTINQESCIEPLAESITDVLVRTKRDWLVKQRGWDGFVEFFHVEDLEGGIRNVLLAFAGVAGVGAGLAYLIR
Compound,IC50 [1],"IC50 ([2]; Homo sapiens, NCI-H929, 48 h)",IC50 [2]
"COc1ccccc1CC(Oc1ncnc2sc(-c3ccco3)c(-c3ccc(OCC4CCN(C)CC4)c(Cl)c3C)c12)C(=O)O [Example 311, (2R)-2-{[(5Sa)-5-{3-chloro-2-methyl-4-[(1-methylpiperidin-4-yl)methoxy]phenyl}-6-(furan-2-yl)thieno[2,3-d]pyrimidin-4-yl]oxy}-3-(2-methoxyphenyl)propanoic acid]",1.5e-08 M,1.59 µM,
"COCCN1CCC(COc2ccc(-c3c(-c4ccco4)sc4ncnc(OC(Cc5ccccc5OC)C(=O)O)c34)c(C)c2Cl)C1 [Example 312, (2R)-2-{[(5Sa)-5-(3-chloro-4-{[1-(2-methoxyethyl)pyrrolidin-3-yl]methoxy}-2-methylphenyl)-6-(furan-2-yl)thieno[2,3-d]pyrimidin-4-yl]oxy}-3-(2-methoxyphenyl)propanoic acid]",8.9e-09 M,1 µM,
"COc1ccccc1CC(Oc1ncnc2sc(-c3ccco3)c(-c3ccc(OCC4CN(C)CCN4C)c(Cl)c3C)c12)C(=O)O [Example 313, (2R)-2-{[(5Sa)-5-{3-chloro-4-[(1,4-dimethylpiperazin-2-yl)methoxy]-2-methylphenyl}-6-(furan-2-yl)thieno[2,3-d]pyrimidin-4-yl]oxy}-3-(2-methoxyphenyl)propanoic acid]",1e-08 M,0.886 µM,
"COc1ccccc1CC(Oc1ncnc2sc(-c3ccco3)c(-c3ccc(OCC4CN(C)CCO4)c(Cl)c3C)c12)C(=O)O [Example 314, (2R)-2-{[(5Sa)-5-{3-chloro-2-methyl-4-[(4-methylmorpholin-2-yl)methoxy]phenyl}-6-(furan-2-yl)thieno[2,3-d]pyrimidin-4-yl]oxy}-3-(2-methoxyphenyl)propanoic acid]",6.9e-09 M,1.82 µM,
"COc1ccccc1CC(Oc1ncnc2sc(-c3ccco3)c(-c3ccc(OCCC4CCCN4C)c(Cl)c3C)c12)C(=O)O [Example 316, (2R)-2-{[(5Sa)-5-{3-chloro-2-methyl-4-[2-(1-methylpyrrolidin-2-yl)ethoxy]phenyl}-6-(furan-2-yl)thieno[2,3-d]pyrimidin-4-yl]oxy}-3-(2-methoxyphenyl)propanoic acid]",7.7e-09 M,1.46 µM,
"COc1ccccc1CC(Oc1ncnc2sc(-c3ccco3)c(-c3ccc(OCCC4CCN(C)CC4)c(Cl)c3C)c12)C(=O)O [Example 317, (2R)-2-{[(5Sa)-5-{3-chloro-2-methyl-4-[2-(1-methylpiperidin-4-yl)ethoxy]phenyl}-6-(furan-2-yl)thieno[2,3-d]pyrimidin-4-yl]oxy}-3-(2-methoxyphenyl)propanoic acid]",1.8e-08 M,0.852 µM,
"COc1ccccc1CC(Oc1ncnc2sc(-c3ccco3)c(-c3ccc(OCCN)c(Cl)c3C)c12)C(=O)O [Example 319, (2R)-2-({(5Sa)-5-[4-(2-aminoethoxy)-3-chloro-2-methylphenyl]-6-(furan-2-yl)thieno[2,3-d]pyrimidin-4-yl}oxy)-3-(2-methoxyphenyl)propanoic acid]",1.5e-08 M,0.834 µM,
"COc1ccccc1CC(Oc1ncnc2sc(-c3ccco3)c(-c3ccc(OCCN(C)C)c(Cl)c3C)c12)C(=O)O [Example 320, (2R)-2-{[(5Sa)-5-{3-chloro-4-[2-(dimethylamino)ethoxy]-2-methylphenyl}-6-(furan-2-yl)thieno[2,3-d]pyrimidin-4-yl]oxy}-3-(2-methoxyphenyl)propanoic acid]",6.5e-09 M,0.471 µM,
"CCN1CCN(CCOc2ccc(-c3c(-c4ccco4)sc4ncnc(OC(Cc5ccccc5OC)C(=O)O)c34)c(C)c2Cl)CC1 [Example 322, (2R)-2-{[(5Sa)-5-{3-chloro-4-[2-(4-ethylpiperazin-1-yl)ethoxy]-2-methylphenyl}-6-(furan-2-yl)thieno[2,3-d]pyrimidin-4-yl]oxy}-3-(2-methoxyphenyl)propanoic acid]",4.3e-09 M,0.113 µM,
"COc1ccccc1CC(Oc1ncnc2sc(-c3ccco3)c(-c3ccc(OCCN4CCN(C(C)C)CC4)c(Cl)c3C)c12)C(=O)O [Example 324, (2R)-2-{[(5Sa)-5-(3-chloro-2-methyl-4-{2-[4-(propan-2-yl)piperazin-1-yl]ethoxy}phenyl)-6-(furan-2-yl)thieno[2,3-d]pyrimidin-4-yl]oxy}-3-(2-methoxyphenyl)propanoic acid]",1.5e-08 M,0.254 µM,
"COc1ccccc1CC(Oc1ncnc2sc(-c3ccco3)c(-c3ccc(OCCN4CCN(CC(F)F)CC4)c(Cl)c3C)c12)C(=O)O [Example 328, (2R)-2-{[(5Sa)-5-(3-chloro-4-{2-[4-(2,2-difluoroethyl)piperazin-1-yl]ethoxy}-2-methylphenyl)-6-(furan-2-yl)thieno[2,3-d]pyrimidin-4-yl]oxy}-3-(2-methoxyphenyl)propanoic acid]",5e-09 M,3.03 µM,
"COc1ccccc1CC(Oc1ncnc2sc(-c3ccco3)c(-c3ccc(OCCN4CCN(Cc5ccccc5)CC4)c(Cl)c3C)c12)C(=O)O [Example 329, (2R)-2-{[(5Sa)-5-{4-[2-(4-benzylpiperazin-1-yl)ethoxy]-3-chloro-2-methylphenyl}-6-(furan-2-yl)thieno[2,3-d]pyrimidin-4-yl]oxy}-3-(2-methoxyphenyl)propanoic acid]",6e-08 M,3.31 µM,
"COCCN1CCN(CCOc2ccc(-c3c(-c4ccco4)sc4ncnc(OC(Cc5ccccc5OC)C(=O)O)c34)c(C)c2Cl)CC1 [Example 330, (2R)-2-{[(5Sa)-5-(3-chloro-4-{2-[4-(2-methoxyethyl)piperazin-1-yl]ethoxy}-2-methylphenyl)-6-(furan-2-yl)thieno[2,3-d]pyrimidin-4-yl]oxy}-3-(2-methoxyphenyl)propanoic acid]",8.3e-09 M,1.17 µM,
"CNCCOc1ccc(-c2c(-c3ccco3)sc3ncnc(OC(Cc4ccccc4OC)C(=O)O)c23)c(C)c1Cl [Example 331, (2R)-2-{[(5Sa)-5-{3-chloro-2-methyl-4-[2-(methylamino)ethoxy]phenyl}-6-(furan-2-yl)thieno[2,3-d]pyrimidin-4-yl]oxy}-3-(2-methoxyphenyl)propanoic acid]",6e-09 M,0.394 µM,
"CCc1c(-c2c(-c3ccco3)sc3ncnc(OC(Cc4ccccc4OC)C(=O)O)c23)ccc(OCCN2CCN(C)CC2)c1Cl [Example 335, (2R)-2-{[(5Sa)-5-{3-chloro-2-ethyl-4-[2-(4-methylpiperazin-1-yl)ethoxy]phenyl}-6-(furan-2-yl)thieno[2,3-d]pyrimidin-4-yl]oxy}-3-(2-methoxyphenyl)propanoic acid]",1.2e-08 M,0.217 µM,
"COc1ccccc1C[C@@H](Oc1ncnc2sc(-c3ccco3)c(-c3ccc(OCCN4CCN(C)CC4)c(Cl)c3F)c12)C(=O)O [Example 337, (2R)-2-{[5-{3-chloro-2-fluoro-4-[2-(4-methylpiperazin-1-yl)ethoxy]phenyl}-6-(furan-2-yl)thieno[2,3-d]pyrimidin-4-yl]oxy}-3-(2-methoxyphenyl)propanoic acid]",3.8e-08 M,1.87 µM,
"Cc1c(-c2c(-c3ccco3)sc3ncnc(OC(Cc4ccccc4OC(F)F)C(=O)O)c23)ccc(OCCN2CCN(C)CC2)c1Cl [Example 338, (2R)-2-{[(5Sa)-5-{3-chloro-2-methyl-4-[2-(4-methylpiperazin-1-yl)ethoxy]phenyl}-6-(furan-2-yl)thieno[2,3-d]pyrimidin-4-yl]oxy}-3-[2-(difluoromethoxy)phenyl]propanoic acid]",3e-08 M,1.04 µM,
"Cc1c(-c2c(-c3ccco3)sc3ncnc(OC(Cc4ccccc4F)C(=O)O)c23)ccc(OCCN2CCN(C)CC2)c1Cl [Example 341, (2S)-2-{[(5Ra)-5-{3-chloro-2-methyl-4-[2-(4-methylpiperazin-1-yl)ethoxy]phenyl}-6-(furan-2-yl)thieno[2,3-d]pyrimidin-4-yl]oxy}-3-(2-fluorophenyl)propanoic acid]",3.5e-08 M,,0.706 µM
"COc1ccc(C)cc1CC(Oc1ncnc2sc(-c3ccco3)c(-c3ccc(OCCN4CCN(C)CC4)c(Cl)c3C)c12)C(=O)O [Example 344, (2R)-2-{[(5Sa)-5-{3-chloro-2-methyl-4-[2-(4-methylpiperazin-1-yl)ethoxy]phenyl}-6-(furan-2-yl)thieno[2,3-d]pyrimidin-4-yl]oxy}-3-(2-methoxy-5-methylphenyl)propanoic acid]",1.6e-08 M,0.22 µM,
"COc1ccc(F)cc1CC(Oc1ncnc2sc(-c3ccco3)c(-c3ccc(OCCN4CCN(C)CC4)c(Cl)c3C)c12)C(=O)O [Example 345, (2R)-2-{[(5Sa)-5-{3-chloro-2-methyl-4-[2-(4-methylpiperazin-1-yl)ethoxy]phenyl}-6-(furan-2-yl)thieno[2,3-d]pyrimidin-4-yl]oxy}-3-(5-fluoro-2-methoxyphenyl)propanoic acid]",8.6e-09 M,0.322 µM,
"COc1cc(F)ccc1CC(Oc1ncnc2sc(-c3ccco3)c(-c3ccc(OCCN4CCN(C)CC4)c(Cl)c3C)c12)C(=O)O [Example 346, (2R)-2-{[(5Sa)-5-{3-chloro-2-methyl-4-[2-(4-methylpiperazin-1-yl)ethoxy]phenyl}-6-(furan-2-yl)thieno[2,3-d]pyrimidin-4-yl]oxy}-3-(4-fluoro-2-methoxyphenyl)propanoic acid]",1.7e-08 M,0.063 µM,
"Cc1cccc(C[C@@H](Oc2ncnc3sc(-c4ccco4)c(-c4ccc(OCCN5CCN(C)CC5)c(Cl)c4C)c23)C(=O)O)c1 [Example 347, (2R)-2-{[(5Sa)-5-{3-chloro-2-methyl-4-[2-(4-methylpiperazin-1-yl)ethoxy]phenyl}-6-(furan-2-yl)thieno[2,3-d]pyrimidin-4-yl]oxy}-3-(3-methylphenyl)propanoic acid]",1.4e-08 M,,0.25 µM
